Experimental findings from patent US10787462B2, “Heterocyclic compound” (TAKEDA PHARMACEUTICAL COMPANY LIMITED, priority 2015, dated 2020) are described below.

The first experiment deals with T1, human RIPK1 (1-375) (Homo sapiens, UniProt Q13546).
T1 construct: human RIPK1 (1-375) gene; GST; made in house; host or cells: Sf-9 insect cells
T1 sequence (Q13546 1-375): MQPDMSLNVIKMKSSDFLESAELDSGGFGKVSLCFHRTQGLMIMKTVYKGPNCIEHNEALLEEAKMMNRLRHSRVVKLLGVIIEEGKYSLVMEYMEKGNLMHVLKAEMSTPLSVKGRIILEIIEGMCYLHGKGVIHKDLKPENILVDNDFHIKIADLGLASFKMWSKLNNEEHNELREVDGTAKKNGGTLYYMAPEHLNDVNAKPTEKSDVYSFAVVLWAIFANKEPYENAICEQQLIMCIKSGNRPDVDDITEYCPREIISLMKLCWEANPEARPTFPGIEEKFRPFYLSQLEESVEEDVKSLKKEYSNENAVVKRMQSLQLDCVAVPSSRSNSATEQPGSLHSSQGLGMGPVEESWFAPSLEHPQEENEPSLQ
The experiment is described as follows: Human RIPK1 enzyme inhibitory effect (ADP-Glo Kinase Assay). In kind it is biochemical. To be noted: 10 μM test compound; well without enzyme = 100% inhibition; 10 µM. The method, boiled down: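 ADP-Glo luminescence read-out of ADP formed over 120 min at room temperature after adding 0.6 mM ATP solution (stock concentration). Compound and Sf-9-expressed, GST-purified RIPK1 (1-375) were first incubated together for 20 min in HEPES pH 7.5 buffer with MgCl2, Tween-20 and DTT.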
For orientation: ADP-Glo turns the ADP formed in a reaction into a luminescent signal.
On to `CN1C(=O)C(N2CCc3c(nn(Cc4c(F)cccc4F)c3Cl)C2=O)CCc2c1cnn2C` (centres unmarked) [Example 134, 6-(3-chloro-2-(2,6-difluorobenzyl)-7-oxo-2,4,5,7-tetrahydro-6H-pyrazolo[3,4-c]pyridin-6-yl)-1,4-dimethyl-4,6,7,8-tetrahydropyrazolo[4,3-b]azepin-5(1H)-one], for which the “human RIPK1 enzyme inhibitory effect at 10 μM (% inhibition)” value was 93%. Same read-out and setting: next, `CN1C(=O)C(N2CCc3c(nn(Cc4ccccc4)c3Cl)C2=O)CCc2c1cnn2C` (centres unmarked) [Example 128, 6-(2-benzyl-3-chloro-7-oxo-2,4,5,7-tetrahydro-6H-pyrazolo[3,4-c]pyridin-6-yl)-1,4-dimethyl-4,6,7,8-tetrahydropyrazolo[4,3-b]azepin-5(1H)-one]: 84%; `CN1C(=O)C(N2CCc3c(nn(Cc4ccccc4F)c3Cl)C2=O)CCc2c1cnn2C` (centres unmarked) [Example 131, 6-(3-chloro-2-(2-fluorobenzyl)-7-oxo-2,4,5,7-tetrahydro-6H-pyrazolo[3,4-c]pyridin-6-yl)-1,4-dimethyl-4,6,7,8-tetrahydropyrazolo[4,3-b]azepin-5(1H)-one]: 100%; `CN1C(=O)C(N2CCc3c(nn(Cc4ccccc4)c3Cl)C2=O)CCc2cn(C)nc21` (centres unmarked) [Example 113, 6-(2-benzyl-3-chloro-7-oxo-2,4,5,7-tetrahydro-6H-pyrazolo[3,4-c]pyridin-6-yl)-2,8-dimethyl-2,5,6,8-tetrahydropyrazolo[3,4-b]azepin-7(4H)-one]: 61%.

The experiment is the same for the next values; noted with them: read-out: human RIPK1 enzyme inhibitory effect at 10 μM (% inhibition), 10 μM test compound; well without enzyme = 100% inhibition.
Turning to `CN1C(=O)[C@@H](N2CCc3cn(Cc4cccc(F)c4)nc3C2=O)COc2ccccc21` [Example 158, (3S)-3-(2-(3-fluorobenzyl)-7-oxo-2,4,5,7-tetrahydro-6H-pyrazolo[3,4-c]pyridin-6-yl)-5-methyl-2,3-dihydro-1,5-benzoxazepin-4(5H)-one], the inhibition at 10 µM stood at 99%. With `CC(c1ccccc1)n1cc2c(n1)C(=O)N([C@H]1COc3ccccc3N(C)C1=O)CC2` (stereo partly drawn) [Example 21, (3S)-5-methyl-3-(7-oxo-2-(1-phenylethyl)-2,4,5,7-tetrahydro-6H-pyrazolo[3,4-c]pyridin-6-yl)-2,3-dihydro-1,5-benzoxazepin-4(5H)-one], the inhibition at 10 µM was 100%. On to `CN1C(=O)[C@@H](N2CCc3cn(Cc4ccc(Cl)cc4)nc3C2=O)COc2ccccc21` [Example 20, (3S)-3-(2-(4-chlorobenzyl)-7-oxo-2,4,5,7-tetrahydro-6H-pyrazolo[3,4-c]pyridin-6-yl)-5-methyl-2,3-dihydro-1,5-benzoxazepin-4(5H)-one], for which the inhibition at 10 µM came out at 100%. With `Cc1c2c(nn1Cc1ccccc1)C(=O)N([C@H]1COc3ccccc3N(C)C1=O)CC2` [Example 11, (3S)-3-(2-benzyl-3-methyl-7-oxo-2,4,5,7-tetrahydro-6H-pyrazolo[3,4-c]pyridin-6-yl)-5-methyl-2,3-dihydro-1,5-benzoxazepin-4(5H)-one], the inhibition at 10 µM worked out at 100%. On the same count and under the same terms, next, `O=C1Nc2ccccc2CCC1N1CCc2cn(Cc3ccccc3)nc2C1=O` (centres unmarked) [Example 3, 3-(2-benzyl-7-oxo-2,4,5,7-tetrahydro-6H-pyrazolo[3,4-c]pyridin-6-yl)-1,3,4,5-tetrahydro-2H-1-benzazepin-2-one]: 97%; `CN1C(=O)[C@@H](N2CCc3cn(Cc4ccccc4)nc3C2=O)COc2cc(F)ccc21` [Example 152, (3S)-3-(2-benzyl-7-oxo-2,4,5,7-tetrahydro-6H-pyrazolo[3,4-c]pyridin-6-yl)-8-fluoro-5-methyl-2,3-dihydro-1,5-benzoxazepin-4(5H)-one]: 99%. Regarding `CN1C(=O)[C@@H](N2CCc3c(nn(Cc4ccccc4)c3Cl)C2=O)COc2cc(C(=O)NCC(C)(C)O)ccc21` [Example 62, (3S)-3-(2-benzyl-3-chloro-7-oxo-2,4,5,7-tetrahydro-6H-pyrazolo[3,4-c]pyridin-6-yl)-N-(2-hydroxy-2-methylpropyl)-5-methyl-4-oxo-2,3,4,5-tetrahydro-1,5-benzoxazepine-8-carboxamide], the inhibition at 10 µM is 101%. With `CN1C(=O)[C@@H](N2CCc3cn(Cc4ccc(F)cc4)nc3C2=O)COc2ccccc21` [Example 157, (3S)-3-(2-(4-fluorobenzyl)-7-oxo-2,4,5,7-tetrahydro-6H-pyrazolo[3,4-c]pyridin-6-yl)-5-methyl-2,3-dihydro-1,5-benzoxazepin-4(5H)-one], the inhibition at 10 µM amounted to 95%. Same read-out and setting: next, `CN1C(=O)C(N2CCc3c(nn(Cc4ccccc4F)c3Cl)C2=O)CCc2c1cnn2C` (centres unmarked) [Example 129, 6-(3-chloro-2-(2-fluorobenzyl)-7-oxo-2,4,5,7-tetrahydro-6H-pyrazolo[3,4-c]pyridin-6-yl)-1,4-dimethyl-4,6,7,8-tetrahydropyrazolo[4,3-b]azepin-5(1H)-one]: 98%; `CN1C(=O)[C@@H](N2CCc3c(nn(Cc4ccccc4)c3Br)C2=O)COc2ccccc21` [Example 10, (3S)-3-(2-benzyl-3-bromo-7-oxo-2,4,5,7-tetrahydro-6H-pyrazolo[3,4-c]pyridin-6-yl)-5-methyl-2,3-dihydro-1,5-benzoxazepin-4(5H)-one]: 98%; `CN1C(=O)[C@@H](N2CCc3cn(Cc4cccnc4)nc3C2=O)COc2ccccc21` [Example 153, (3S)-5-methyl-3-(7-oxo-2-(pyridin-3-ylmethyl)-2,4,5,7-tetrahydro-6H-pyrazolo[3,4-c]pyridin-6-yl)-2,3-dihydro-1,5-benzoxazepin-4(5H)-one]: 95%. `CN1C(=O)C(N2CCc3c(nn(Cc4ccccc4)c3Cl)C2=O)CCc2c1cnn2C` (centres unmarked) [Example 126, 6-(2-benzyl-3-chloro-7-oxo-2,4,5,7-tetrahydro-6H-pyrazolo[3,4-c]pyridin-6-yl)-1,4-dimethyl-4,6,7,8-tetrahydropyrazolo[4,3-b]azepin-5(1H)-one]: the inhibition at 10 µM came to 98%. The same measure, in the same setting: the value for `CN1C(=O)[C@@H](N2CCc3cn(CC4(C)COC4)nc3C2=O)COc2ccccc21` [Example 154, (3S)-5-methyl-3-(2-((3-methyloxetan-3-yl)methyl)-7-oxo-2,4,5,7-tetrahydro-6H-pyrazolo[3,4-c]pyridin-6-yl)-2,3-dihydro-1,5-benzoxazepin-4(5H)-one] was 78%; that for `CN1C(=O)C(N2CCc3c(nn(Cc4ccccc4)c3Cl)C2=O)CCc2ccncc21` (centres unmarked) [Example 101, 3-(2-benzyl-3-chloro-7-oxo-2,4,5,7-tetrahydro-6H-pyrazolo[3,4-c]pyridin-6-yl)-1-methyl-1,3,4,5-tetrahydro-2H-pyrido[3,4-b]azepin-2-one] was 97%; that for `CN1C(=O)[C@@H](N2CCn3cc(Cc4ccccc4)nc3C2=O)COc2ccccc21` [Example 7, (3S)-3-(2-benzyl-8-oxo-5,6-dihydroimidazo[1,2-a]pyrazin-7(8H)-yl)-5-methyl-2,3-dihydro-1,5-benzoxazepin-4(5H)-one] was 91%. On to `CN1C(=O)[C@@H](N2CCc3cn(Cc4ccccc4F)nc3C2=O)COc2ccccc21` [Example 9, (3S)-3-(2-(2-fluorobenzyl)-7-oxo-2,4,5,7-tetrahydro-6H-pyrazolo[3,4-c]pyridin-6-yl)-5-methyl-2,3-dihydro-1,5-benzoxazepin-4(5H)-one], for which the inhibition at 10 µM worked out at 100%.

For orientation: inhibition means the relative decrease from the control value, in per cent.
